Molecular target: T1, recombinant human sGC (rhsGCα1/rhsGCβ1) in intact Sf9 cells (Homo sapiens, UniProt Q02108+Q02153)
T1 construct: Thus, the complete hsGCα1 cDNA is under the control of the polyhedrin promotor (PHP); Thus, the complete hsGCβ1 cDNA is under the control of the polyhedrin promotor (PHP); expressed in transfected cells; host or cells: Sf9 insect cells coinfected with recombinant baculoviruses (pVL1393-derived)
T1 sequence (Q02108 1-690): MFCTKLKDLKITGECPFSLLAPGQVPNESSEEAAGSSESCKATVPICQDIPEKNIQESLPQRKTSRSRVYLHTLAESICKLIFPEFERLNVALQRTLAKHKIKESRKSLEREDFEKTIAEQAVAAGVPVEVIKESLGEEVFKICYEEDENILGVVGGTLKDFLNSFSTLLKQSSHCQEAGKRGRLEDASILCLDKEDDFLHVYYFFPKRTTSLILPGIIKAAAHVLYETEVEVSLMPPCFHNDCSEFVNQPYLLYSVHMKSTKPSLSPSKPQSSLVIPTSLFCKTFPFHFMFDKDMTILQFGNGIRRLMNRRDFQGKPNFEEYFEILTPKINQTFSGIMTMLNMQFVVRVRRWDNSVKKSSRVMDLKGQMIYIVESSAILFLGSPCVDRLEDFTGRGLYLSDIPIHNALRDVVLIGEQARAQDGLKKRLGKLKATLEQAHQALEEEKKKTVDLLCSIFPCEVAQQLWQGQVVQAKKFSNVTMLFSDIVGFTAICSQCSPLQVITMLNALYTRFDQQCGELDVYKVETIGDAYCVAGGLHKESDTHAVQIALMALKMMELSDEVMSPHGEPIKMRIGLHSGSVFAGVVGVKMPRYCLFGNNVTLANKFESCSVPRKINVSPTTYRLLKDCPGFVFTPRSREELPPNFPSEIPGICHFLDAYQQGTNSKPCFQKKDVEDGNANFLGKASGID
T1 sequence (Q02153 1-619): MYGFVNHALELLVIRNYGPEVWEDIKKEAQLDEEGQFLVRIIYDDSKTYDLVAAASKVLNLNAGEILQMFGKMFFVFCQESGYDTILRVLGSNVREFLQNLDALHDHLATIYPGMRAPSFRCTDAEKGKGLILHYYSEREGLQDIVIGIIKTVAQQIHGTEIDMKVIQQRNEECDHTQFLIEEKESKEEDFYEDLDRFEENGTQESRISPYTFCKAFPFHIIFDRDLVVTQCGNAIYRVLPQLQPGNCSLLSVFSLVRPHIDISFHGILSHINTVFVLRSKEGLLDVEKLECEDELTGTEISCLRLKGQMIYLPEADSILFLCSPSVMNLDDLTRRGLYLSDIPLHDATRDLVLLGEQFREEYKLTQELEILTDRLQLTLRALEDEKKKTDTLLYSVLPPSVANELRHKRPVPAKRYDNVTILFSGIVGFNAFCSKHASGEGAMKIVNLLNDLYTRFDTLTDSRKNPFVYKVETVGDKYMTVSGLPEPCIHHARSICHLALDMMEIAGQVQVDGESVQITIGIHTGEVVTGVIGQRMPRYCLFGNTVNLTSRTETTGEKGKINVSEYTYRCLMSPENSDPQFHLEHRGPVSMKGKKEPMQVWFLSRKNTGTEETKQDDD
Assay: cGMP content (RIA) in intact Sf9 cells coexpressing rhsGCα1 and rhsGCβ1
Type: cell-based
Description: For the production of functional heterodimeric human sGC, rhsGCα1 and rhsGCβ1 were coexpressed in Sf9 cells with recombinant baculoviruses. For this, Sf9 monolayer cultures [2.5×10^6 cells/dish, Ø 90 mm; supplements see example 2] were coinfected with a M.O.I. (multiplicity of infection) of 2 pfu/cell of each recombinant baculovirus (hsGCα1 and hsGCβ1; both without GST-tag) and cultivated for 48 hours at 27° C. The basal as well as the NO-stimulated activity of the sGC in the cells was determined by measurement of the cGMP content in the cells in the presence of the phosphodiesterase inhibitor IBMX (3-isobutyl-1-methylxanthine).
For the determination of the cGMP content, the culture media was replaced by Krebs-Ringer-buffer (KRB; […]; 4.74 mM KCI; 2.54 mM CaCl2; 1.19 mM MgSO4; 1.19 mM KH2PO4; 25 mM NaHCO3; 10 mM HEPES; pH 7.4; 0.1% BSA) which, in addition, contained 1 mM IBMX. The cells were incubated for one hour at 27° C. Then the cells were washed with ice-cold KRP and harvested in 1 ml ice-cold ethanol (80%) with a cell scraper. The cells were homogenized by sonication [see Example 3] and centrifuged at 20,000×g for 20 minutes. The supernatant was dried in a speed-vac and the residue resuspended in 25 mM TEA, pH 7.8. The cGMP content was determined by means of RIA (Biotrend).

Row | SMILES | increase of cGMP content (10 μM YC-1 for 2 minutes) [fold] | increase of cGMP content (100 μM YC-1, compared with 10 μM YC-1) | cGMP levels compared to stimulation with SNP alone (YC-1 simultaneously with 100 μM SNP) | influence on basal cGMP levels (basal, without SNP) | effect on stimulation of rhsGC with SNP (simultaneous incubation with ODQ and SNP)
1 | OCc1ccc(-c2nn(Cc3ccccc3)c3ccccc23)o1 [YC-1, 3-(5′-hydroxymethyl-2′-furyl)-1-benzylindazol] | 3.4 | the same effect | doubled |  | 
2 | O=c1onc2cnc3ccccc3n12 [ODQ, 1H-[1,2,4]oxadiazolo[4,3,-a]chinoxalin-1-on] |  |  |  | did not have an influence | inhibited
